Data taken from PubChem BioAssay AID179 (DTP/NCI, 2004).
The source made the active and inactive calls.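 How the source made its calls: active means compounds giving half or more protection of infected cells from virus-caused growth loss, again on retest; inactive means the rest.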

Test system: CEM cells HIV-1 protection, formazan growth assay
Test: NCI AIDS Antiviral Assay
Conditions: for IC50: measured here: growth of uninfected CEM cells
Procedure, shortened: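 CEM (human) cells, HIV-1 infected vs uninfected, 5-point dosing, formazan growth read-out. Retest threshold 50% protection.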

Compound	EC50 [µM]	IC50 [µM]	outcome
CN(C)C1C(=O)C(C(N)=O)=C(O)C2(O)C(=O)C3=C(O)c4c(O)cccc4C(C)(O)C3C(O)C12 (centres undefined)	> 263	95.5	–
CCSC(=O)/C=C1\CN(C(=O)OC(C)(C)C)C1C(=O)OC(C)(C)C (centres undefined)	> 200	1.1	–
CCC(C)[C@H](NC(=O)[C@H](Cc1ccccc1)NC(=O)N(CC)c1ccccc1)C(=O)N[C@@H](CC(C)C)C(=O)OC (some centres undefined)	–	–	inactive
Cc1cccc2c1c(=O)c1c(O)cc3c(c1n2C)C=CC(C)(C)O3	32.4	> 200	–
O=C1C(Br)=CC2(C=C1Br)CCNc1c(O)c3c4c(c12)=NCCC=4C=N3	> 2	0.0891	–
O=C(CCN1CCCCC1)Nc1ccc2c(c1)C(=O)c1ccc(NC(=O)CCN3CCCCC3)cc1C2=O	> 200	1.86	–
NC12CCC(N)(c3ccccc31)c1ccccc12	> 200	> 200	–
Cc1cc(S(=O)(=O)Nc2nnc3cc(C(F)(F)F)cc(C)n23)c(S)cc1Cl	50.1	132	–
CCC1C(=O)OCc2c1cc1n(c2=O)CCC12OCCO2 (centres undefined)	> 851	> 851	–
Nc1nc(Cl)cc(NCC2(CO)CC=CC2)n1	> 200	> 200	–
CNc1nc2cc(OC)c(OC)cc2c(=O)[nH]1	> 200	191	–
C(COC1CC2CC1C1CC3OC3C21)OCCOC1CC2CC1C1CC3OC3C21 (centres undefined)	> 200	77.6	–
COc1ccc(-c2cc(-c3ccccc3)c(C#N)c(=O)[nH]2)cc1	> 61.7	> 61.7	–
CCOC(=O)CC1(c2cccc3ccccc23)OC(=O)c2ccccc21 (centres undefined)	–	–	inactive
COC(=O)C(NC(=O)C(C)NC(=O)OC(C)(C)C)C(C)O (centres undefined)	–	–	inactive
CC1(C)CCC[C@@]2(C)C1CC[C@H]1CC(O)C3(C)CCC12C3 (some centres undefined)	> 12.3	> 12.3	–
O=[S@](c1ccccc1)[C@@H]1CC2C3CC4C2C4C31 (some centres undefined)	> 537	324	–
Cc1cc(=O)[nH]c(NN2C(Cl)C(=O)C2c2ccc(Cl)cc2)n1 (centres undefined)	> 55	4.68	–
O=Nc1ccc(Cl)cc1	–	–	inactive
CCOC(=O)C1=C(C)N(C2OC(COC(C)=O)C(OC(C)=O)C(OC(C)=O)C2OC(C)=O)C(=O)NC1c1ccccc1 (centres undefined)	> 31.6	> 31.6	–
COc1ccc(CCCN2c3ccccc3Sc3ccccc32)cc1	> 10.7	> 10.7	–
S=C1NC2=S(N=C(Nc3ccccc3)N2c2ccccc2)S1 (centres undefined)	–	–	inactive

Compound	EC50 [µM]	IC50 [µM]	outcome
COc1ccc(C/C(=N/O)C(=O)NCCc2cc(Br)c(OCCCN(C)C)c(Br)c2)cc1Br	–	–	inactive
O=c1[nH]c2ccccc2c(O)c1O	> 200	> 200	–
COc1cc2c[n+]3ccc4cc(OC)c(OC)cc4c3cc2cc1O	–	–	inactive
O=C(CCl)N1CCN(c2ccccn2)CC1	> 1050	–	–
OCC(O)C(O)C(O)C(O)c1nn[nH]n1 (centres undefined)	–	–	inactive
CSSC(SC)SC	> 200	33.1	–
O=C1C2C3C=C4c5ccccc5N(c5ccccc5)C4(C2C(=O)N1c1ccccc1)C1C(=O)N(c2ccccc2)C(=O)C31 (centres undefined)	–	–	inactive
CCOC(C[Se]CC(OCC)OCC)OCC	37.2	112	–
CN(c1c(Cl)cccc1Cl)S(=O)(=O)c1ccccc1[N+](=O)[O-]	> 200	66.1	–
CCC[CH2][Sn]1([CH2]CCC)[O]CC(CN2CCCC2)[O]1 (centres undefined)	> 34.7	–	–
O=C(O)CN(CC(=O)O)C1CCCCC1N(CC(=O)O)CC(=O)NCCN=C=S (centres undefined)	> 200	> 200	–
CCN1CCC(O)(c2ccc(O)cc2)C(C(=O)c2ccc(O)cc2)C1 (centres undefined)	> 16.2	> 16.2	–
O=C(Cc1ccccc1)NN1C(=O)C(Cl)C1c1cc(Br)ccc1O (centres undefined)	> 12.6	6.92	–
CC(C)CC(NC(=O)OCc1ccccc1)C(=O)NCCCCC(N)C(=O)NC(CCCCNC(=O)C(CC(C)C)NC(=O)OCc1ccccc1)C(=O)NC(CCCCNC(=O)C(CC(C)C)NC(=O)OCc1ccccc1)C(=O)NC(CCCCNC(=O)C(CC(C)C)NC(=O)OCc1ccccc1)C(=O)NC(CCCCNC(=O)C(CC(C)C)NC(=O)OCc1ccccc1)C(=O)NC(CCCCNC(=O)C(CC(C)C)NC(=O)OCc1ccccc1)C(=O)O (centres undefined)	> 100	> 100	–
COc1ccc2c(c1)OC[C@@H]1c3cc(NS(=O)(=O)c4ccccc4)cc(OC)c3O[C@H]21	> 200	18.2	–
COC(=O)Cc1cc(O)c2c(c1O)C(=O)c1ccccc1C2=O	–	–	inactive
C[CH2][Ge]([CH2]C)([CH2]C)[O]C(=O)CCC(=O)[O][Ge]([CH2]C)([CH2]C)[CH2]C	> 214	> 214	–
C=CCN1C(=O)CS/C1=N/NC(=O)C(O)(c1ccccc1)c1ccccc1	> 200	129	–
C#CCOCn1cc(C)c(=O)[nH]c1=O	> 200	> 200	–
CC(=O)N1C(=O)C(=O)c2cc(Cl)ccc21	–	–	inactive
O=C1C2=Cc3ccccc3OC2(O)Oc2ccc(O)cc21 (centres undefined)	> 200	50.1	–
CC1CCCc2c(C#N)c(N)nc(-c3ccc(Cl)cc3)c21 (centres undefined)	> 200	26.9	–

Compound	EC50 [µM]	IC50 [µM]	outcome
O=C(/C=C/c1ccc(Cl)c(Cl)c1)CCN1CCN(CCC(=O)/C=C/c2ccc(Cl)c(Cl)c2)CC1	> 200	1.91	–
CCOC(=O)NC(Nc1ccc(OC(F)(F)F)cc1)(C(F)(F)F)C(F)(F)F	> 200	105	–
NC(=S)N/N=C1/CCCC2CCCC[C@@H]12 (some centres undefined)	> 200	> 200	–
CCOC(=O)CC(=O)N(c1ccc(OC)cc1)C(C(=O)OC)c1ccccc1 (centres undefined)	> 200	166	–
C(=C\c1cnc2ccccc2n1)/c1ccc2c(c1)OCO2	> 200	> 200	–
COc1cc2cc[n+]3c4cc(OC)c(OC)cc4c(C)cc3c2cc1OC	–	–	inactive
CC(=O)NNc1nc(C)c(C(/C=C/c2ccc([N+](=O)[O-])cc2)=N/N)s1	> 69.2	> 69.2	–
Cc1oc(N)c(S(=O)(=O)c2cc3ccccc3n(O)c2=N)c1C	> 200	95.5	–
CNCCCCN(C)/[N+]([O-])=N\O	> 8910	4070	–
CC(C)(C)COC(=O)NS(=O)(=O)Nc1ccccc1	> 200	> 200	–
COc1ccc(NC(=O)C(=O)C2CNC(=O)NC2=O)c(OC)c1 (centres undefined)	> 209	> 209	–
Cc1ccc(S(=O)(=O)Nn2c(-c3ccccc3)c(C#N)c(-c3ccc(Cl)cc3)c(C#N)c2=O)cc1	> 200	38.9	–
O=S(=O)([O-])[O-].O=c1[nH]cnc2[nH]ncc12.O=c1[nH]cnc2[nH]ncc12.[Zn+2]	> 209	155	–
CCCCCCCCCCCCN(CCCCCCCCCCCC)CC(=O)Nc1ccc(S(=O)(=O)c2ccc(NC(=O)CN(CCCCCCCCCCCC)CCCCCCCCCCCC)cc2)cc1	> 50.1	2.57	–
COc1ccc(C(=O)O)c2c(=O)c3ccccc3[nH]c12	–	–	inactive
Cc1ccc(S(=O)(=O)N/N=c2\c(C)c(C3=NS(=O)(=O)c4cc(S(N)(=O)=O)c(Cl)cc4N3)oc3c(Cl)cc(Cl)cc23)cc1	> 69.2	> 69.2	–
O=[N+]([O-])c1ccc(OC2CC3C4C=CC3C2C4)c([N+](=O)[O-])c1 (centres undefined)	> 200	> 200	–
CC1CC(C)CN(Cc2cccnc2)C1 (centres undefined)	–	–	inactive
COc1ccccc1NC(=O)CC(=O)NNCC(=O)Nc1nnc(-c2ccccc2)o1	> 85.1	> 85.1	–
O=C(CCSSc1ccccn1)ON1C(=O)CCC1=O	> 50.1	> 50.1	–
C1CCC(N([P-]P([P-]N(C2CCCCC2)C2CCCCC2)N(C2CCCCC2)C2CCCCC2)C2CCCCC2)CC1.[C-]#[O+].[C-]#[O+].[C-]#[O+].[C-]#[O+].[C-]#[O+].[C-]#[O+].[Fe].[Fe] (centres undefined)	> 0.603	> 0.603	–
N#CC(C#N)=CN1CCCC1	> 200	> 200	–

Compound	EC50 [µM]	IC50 [µM]	outcome
O=C1NC(SSC2=NNC3(C(=O)N2)c2ccccc2-c2ccccc23)=NNC12c1ccccc1-c1ccccc12	–	–	inactive
N#Cc1ccc(NC(=NCC(=O)O)Nc2cccc3ccccc23)cc1	> 200	> 200	–
CC/C=C/c1cc2cc[nH]c2c2c1C(C)C[C@@H]2C (some centres undefined)	–	–	inactive
O=C(OC[C@H]1OCC(=O)C2(OC(=O)c3ccccc3)C3C=CC(C3)C12)c1ccccc1 (some centres undefined)	–	–	inactive
CC(C)OP(=O)(OC(C)C)/C(=N/Nc1ccc([N+](=O)[O-])cc1)NNC(=O)c1ccccc1	> 40.7	17	–
CCC[CH2][Sn]([CH2]CCC)([O]C(=O)CN)[O]C(=O)CN	> 33.9	2.45	–
O=C1C2C3CCC(O3)C2C(=O)N1N1C(=O)C2C3CCC(O3)C2C1=O (centres undefined)	> 200	43.7	–
COc1ccc(C2OCC3OC(n4cc(C)c(=O)[nH]c4=O)C[C@H]3N2OC(C)=O)cc1 (some centres undefined)	–	–	inactive
Cn1c(=O)c2c(nc(N/N=c3\scc(-c4ccc(Cl)cc4)n3Cc3ccccc3)n2C)n(C)c1=O	> 200	10.7	–
O=C(NNC(=O)c1ccccc1Cl)c1ccccc1Cl	> 200	> 200	–
[O-]c1c2c(nn1-c1ccc(Cl)cc1)c1ccccc1c[n+]2Cc1ccccc1	> 5.13	> 5.13	–
CC1SC2(CC3CCC2(C)C3(C)C)OC1=O (centres undefined)	> 20.9	> 20.9	–
NNc1nc2ccccc2c(=O)n1NC(=O)C(=O)Nc1cccc(C(F)(F)F)c1	> 324	> 324	–
CC(C)(C)OC(=O)N(CCNS(=O)(=O)c1cccc2cnccc12)CCC(=O)ON1C(=O)CCC1=O	> 200	> 200	–
CC1CCC2(CC1)NN=c1s/c(=C\c3ccc(O)cc3)c(=O)n1N2 (centres undefined)	–	–	inactive
COC(=O)C1=C(N)C2=C(N)Oc3ccccc3C2CC1=C(C#N)C#N (centres undefined)	> 200	47.9	–
Cc1cc2c(C)cc3c(c2oc1=O)[C@@H](OC(=O)C12CCC(C)(C(=O)O1)C2(C)C)[C@@H](OC(=O)C12CCC(C)(C(=O)O1)C2(C)C)C(C)(C)O3 (some centres undefined)	0.692	6.92	–
COc1ccccc1NC(=O)C(=O)C(C#N)CC(C)(C)C=O (centres undefined)	> 85.1	> 85.1	–
CCN(CC)c1ccc2cc(C(N)=S)c(=N)oc2c1	> 61.7	20.4	–
